We go through ten compounds from patent EP4122499A1, “FIBROBLAST ACTIVATION PROTEIN INHIBITORS AND USE THEREOF” (3B Pharmaceuticals GmbH, priority 2021, dated 2023).

In test [1] the target is T1, FAP-expressing human WI-38 fibroblasts (Homo sapiens, UniProt Q12884).
T1 construct: FAP-expressing human WI-38 fibroblasts (ECACC 90020107) were cultured in EMEM; host or cells: WI-38 human fibroblasts
T1 sequence (Q12884 1-760): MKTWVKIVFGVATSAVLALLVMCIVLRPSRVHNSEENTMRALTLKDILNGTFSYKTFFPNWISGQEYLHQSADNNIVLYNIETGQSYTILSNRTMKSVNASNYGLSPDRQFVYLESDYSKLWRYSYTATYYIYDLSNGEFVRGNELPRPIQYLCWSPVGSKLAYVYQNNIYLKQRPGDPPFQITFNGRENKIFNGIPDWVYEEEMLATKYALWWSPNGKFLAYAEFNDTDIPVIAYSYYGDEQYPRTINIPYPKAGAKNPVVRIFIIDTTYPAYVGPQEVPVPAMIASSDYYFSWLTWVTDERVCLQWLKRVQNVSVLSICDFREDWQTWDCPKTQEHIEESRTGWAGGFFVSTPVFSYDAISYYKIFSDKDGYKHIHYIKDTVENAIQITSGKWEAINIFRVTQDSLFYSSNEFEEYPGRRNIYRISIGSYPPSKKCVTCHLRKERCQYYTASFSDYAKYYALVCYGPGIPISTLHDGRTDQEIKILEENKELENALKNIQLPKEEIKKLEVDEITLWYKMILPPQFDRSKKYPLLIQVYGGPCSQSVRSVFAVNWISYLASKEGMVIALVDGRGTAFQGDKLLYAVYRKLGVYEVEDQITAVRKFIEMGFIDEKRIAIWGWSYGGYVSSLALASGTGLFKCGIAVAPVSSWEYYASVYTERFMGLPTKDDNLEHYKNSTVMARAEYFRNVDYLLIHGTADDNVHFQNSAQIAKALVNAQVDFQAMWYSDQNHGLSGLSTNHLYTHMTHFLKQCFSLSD
Nature of the test: Competitive FACS binding assay (displacement of Cy5-labeled FAP inhibitor 3BP-2935). The conditions noted are these: 3 nM Cy5-labeled 3BP-2935, 4°C, 1 hour. In general terms: In flow cytometry, cells or beads pass a laser one at a time.

In another test the target is T2, Recombinant mouse FAP (Mus musculus, UniProt P97321).
T2 construct: purchased R&D systems 8647-SE
T2 sequence (P97321 1-761): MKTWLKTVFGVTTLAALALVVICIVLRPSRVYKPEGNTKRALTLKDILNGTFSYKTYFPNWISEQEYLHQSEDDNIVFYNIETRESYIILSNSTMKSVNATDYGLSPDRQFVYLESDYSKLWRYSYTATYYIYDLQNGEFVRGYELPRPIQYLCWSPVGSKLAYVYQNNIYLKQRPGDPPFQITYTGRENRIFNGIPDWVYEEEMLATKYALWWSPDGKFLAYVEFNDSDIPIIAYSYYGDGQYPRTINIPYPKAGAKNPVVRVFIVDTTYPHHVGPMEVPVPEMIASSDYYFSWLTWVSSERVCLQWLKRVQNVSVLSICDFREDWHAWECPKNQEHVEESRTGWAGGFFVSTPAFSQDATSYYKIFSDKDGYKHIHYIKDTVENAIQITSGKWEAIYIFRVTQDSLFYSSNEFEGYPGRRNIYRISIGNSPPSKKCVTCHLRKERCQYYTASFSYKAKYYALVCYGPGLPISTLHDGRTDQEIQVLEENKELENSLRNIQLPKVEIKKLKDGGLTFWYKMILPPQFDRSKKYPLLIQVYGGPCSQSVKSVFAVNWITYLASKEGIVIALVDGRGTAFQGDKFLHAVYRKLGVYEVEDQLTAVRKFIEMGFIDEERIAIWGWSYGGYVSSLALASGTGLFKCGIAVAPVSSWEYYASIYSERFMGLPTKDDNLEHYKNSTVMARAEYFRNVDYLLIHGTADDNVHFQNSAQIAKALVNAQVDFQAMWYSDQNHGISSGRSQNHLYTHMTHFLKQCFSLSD
Nature of the test: FRET-based FAP protease activity assay (mouse). It is filed as biochemical. Particulars: FRET-peptide substrate, 37°C; for IC50: read-out: pIC50 (mouseFAP) (converted). How it is done:
In order to determine the inhibitory activity a FRET-based FAP protease activity assay was established.
25 µL of a 30 µM substrate solution, diluted in assay buffer, was added. […] Four parameter logistic (4PL) curve fitting and pIC50 calculations were performed using ActivityBase software.

The target in the next test is T3, Recombinant human DPP4 (Homo sapiens, UniProt P27487).
T3 construct: purchased R&D systems 9168-SE
Nature of the test: DPP4 protease activity assay. Particulars: 20 µM GP-AMC substrate; for IC50: read-out: pIC50 (DPP4) (converted). The format is biochemical. The protocol: (§1) The PREP activity assay was performed using the FACS buffer (PBS including 1% FBS, Sigma-Aldrich, Cat# D8537). […] The DPP4 activity assay was performed in DPP assay buffer (25 mM Tris, pH 8.0).
(§2) Four parameter logistic (4PL) curve fitting and pIC50 calculations were performed using ActivityBase software.

The target in the next test is T4, recombinant human PREP (Homo sapiens, UniProt P48147).
T4 construct: purchased R&D systems 4308-SE
T4 sequence (P48147 1-710): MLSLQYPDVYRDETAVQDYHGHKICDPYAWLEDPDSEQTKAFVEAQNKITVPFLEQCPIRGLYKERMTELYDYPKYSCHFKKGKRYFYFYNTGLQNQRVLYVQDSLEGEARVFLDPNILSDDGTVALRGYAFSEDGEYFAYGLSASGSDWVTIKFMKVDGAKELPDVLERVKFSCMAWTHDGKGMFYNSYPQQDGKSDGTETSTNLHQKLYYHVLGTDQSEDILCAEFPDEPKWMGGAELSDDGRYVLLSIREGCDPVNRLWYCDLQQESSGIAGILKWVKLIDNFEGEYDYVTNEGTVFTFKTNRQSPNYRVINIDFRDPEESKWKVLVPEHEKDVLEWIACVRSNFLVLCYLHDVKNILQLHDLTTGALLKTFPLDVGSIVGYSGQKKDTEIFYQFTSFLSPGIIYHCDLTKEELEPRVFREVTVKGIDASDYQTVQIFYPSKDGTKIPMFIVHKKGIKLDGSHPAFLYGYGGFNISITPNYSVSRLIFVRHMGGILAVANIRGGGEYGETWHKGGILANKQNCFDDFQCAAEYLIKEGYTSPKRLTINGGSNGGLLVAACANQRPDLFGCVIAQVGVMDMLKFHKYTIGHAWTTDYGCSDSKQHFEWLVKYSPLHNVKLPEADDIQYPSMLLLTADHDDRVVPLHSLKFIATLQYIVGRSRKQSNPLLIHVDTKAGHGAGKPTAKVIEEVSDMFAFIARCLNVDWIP
Put plainly: PREP protease activity assay. The format is biochemical. The conditions noted are these: 50 µM Z-GP-AMC substrate. The protocol:
as §1, §2

T3 sequence (P27487 whole entry): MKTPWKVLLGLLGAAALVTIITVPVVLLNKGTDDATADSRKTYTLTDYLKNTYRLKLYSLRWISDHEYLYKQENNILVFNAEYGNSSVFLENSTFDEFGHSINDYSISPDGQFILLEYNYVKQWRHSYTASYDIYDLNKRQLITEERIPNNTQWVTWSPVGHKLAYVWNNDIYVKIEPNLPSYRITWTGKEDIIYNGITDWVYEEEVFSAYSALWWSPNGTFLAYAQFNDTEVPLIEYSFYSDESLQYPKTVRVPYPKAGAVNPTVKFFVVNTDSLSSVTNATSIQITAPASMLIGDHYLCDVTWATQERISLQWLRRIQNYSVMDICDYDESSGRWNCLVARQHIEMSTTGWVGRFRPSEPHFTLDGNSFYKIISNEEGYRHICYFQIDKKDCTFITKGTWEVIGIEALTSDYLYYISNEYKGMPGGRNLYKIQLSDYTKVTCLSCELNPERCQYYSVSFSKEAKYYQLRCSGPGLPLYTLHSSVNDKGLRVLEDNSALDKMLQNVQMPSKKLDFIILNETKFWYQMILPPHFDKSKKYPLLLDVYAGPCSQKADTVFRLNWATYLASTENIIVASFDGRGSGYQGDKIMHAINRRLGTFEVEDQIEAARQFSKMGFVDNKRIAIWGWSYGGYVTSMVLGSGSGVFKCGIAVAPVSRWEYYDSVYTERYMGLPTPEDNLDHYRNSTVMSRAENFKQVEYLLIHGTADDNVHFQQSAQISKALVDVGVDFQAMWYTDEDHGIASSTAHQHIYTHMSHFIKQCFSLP

Take `N#C[C@@H]1CC(F)(F)CN1C(=O)CNC(=O)c1ccnc2ccc(-c3ccc(C(=O)NCCN4CCN(C(=O)CN5CCN(CC(=O)O)CCN(CC(=O)O)CCN(CC(=O)O)CC5)CC4)cc3)cc12`: in test [1], the “pIC50 (FACS)” value is reported as 8.7. The “pIC50 (mouseFAP)” value on Recombinant mouse FAP is recorded as 8.9. Moreover, the “pIC50 (DPP4)” value at Recombinant human DPP4 is recorded as less than 6. The “pIC50 (PREP)” value on recombinant human PREP is less than 6.

With `CS(=O)(=O)c1cccc(-c2ccc3c(C(=O)NCC(=O)N4CC(F)(F)C[C@H]4C#N)ccnc3c2)c1` [drawing 289], the IC50 is 2 nM in test [1], 1.26 nM at Recombinant mouse FAP, more than 1000 nM on Recombinant human DPP4 and more than 1000 nM on recombinant human PREP.

Turning to `O=C(NCC(=O)N1CCC[C@H]1C(=O)c1nc2ccccc2o1)c1ccnc2ccccc12`, the IC50 in test [1] is 6.31 nM; on Recombinant mouse FAP it was 2 nM; on Recombinant human DPP4 it was more than 1000 nM; at recombinant human PREP it was 1 nM.

In the case of `CS(=O)(=O)c1ccc(-c2ccc3nccc(C(=O)NCC(=O)N4CC(F)(F)C[C@H]4C#N)c3c2)cc1`, the IC50 was 1 nM in test [1], 0.794 nM on Recombinant mouse FAP, more than 1000 nM at Recombinant human DPP4 and more than 1000 nM at recombinant human PREP.

`O=C(O)CN1CCN(CC(=O)O)CCN(CC(=O)N2CCN(CCNC(=O)c3ccc(-c4ccc5nccc(C(=O)NCC(=O)N6CCC[C@H]6C(=O)c6nc7ccccc7o6)c5c4)cc3)CC2)CCN(CC(=O)O)CC1` [drawing 354]: the “pIC50 (FACS)” value in test [1] is 7.9. Moreover, the “pIC50 (mouseFAP)” value at Recombinant mouse FAP is 8.1. In addition, at Recombinant human DPP4, the “pIC50 (DPP4)” value is on record as less than 6. In addition, the “pIC50 (PREP)” value on recombinant human PREP is 8.2.

As for `O=C(O)CN1CCN(CC(=O)O)CCN(CC(=O)N2CCN(CCNC(=O)c3ccc(-c4ccc5nccc(C(=O)NCC(=O)N6CCC[C@H]6C(=O)c6nc7ccccc7o6)c5c4)cn3)CC2)CCN(CC(=O)O)CC1` [drawing 361], in test [1], the “pIC50 (FACS)” value was 7.6. Also, the “pIC50 (mouseFAP)” value at Recombinant mouse FAP is 7.8. On Recombinant human DPP4, the “pIC50 (DPP4)” value was less than 6. The “pIC50 (PREP)” value on recombinant human PREP turned out to be 7.9.

Consider `O=C(O)CN1CCN(CC(=O)O)CCN(CC(=O)NCCCNC(=O)c2ccc(-c3ccc4nccc(C(=O)NCC(=O)N5CCC[C@H]5C(=O)c5nc6ccccc6o5)c4c3)cc2)CCN(CC(=O)O)CC1`, for which the “pIC50 (FACS)” value in test [1] worked out at 8.6. For the same compound, the “pIC50 (mouseFAP)” value at Recombinant mouse FAP turned out to be 8.7. Besides, the “pIC50 (DPP4)” value at Recombinant human DPP4 is less than 6. Further, the “pIC50 (PREP)” value on recombinant human PREP is reported as 8.2.

`N#C[C@@H]1CC(F)(F)CN1C(=O)CNC(=O)c1ccnc2ccc(-c3ccc(C(=O)NCCCNC(=O)CN4CCN(CC(=O)O)CCN(CC(=O)O)CCN(CC(=O)O)CC4)nc3)cc12`: the “pIC50 (FACS)” value in test [1] is reported as 8.8. The “pIC50 (mouseFAP)” value on Recombinant mouse FAP was determined as 8.8. In addition, the “pIC50 (DPP4)” value at Recombinant human DPP4 is recorded as less than 6. For the same compound, the “pIC50 (PREP)” value on recombinant human PREP is recorded as less than 6.

On to `O=C(O)CN1CCN(CC(=O)O)CCN(CC(=O)NCCCNC(=O)c2ccc(-c3ccc4nccc(C(=O)NCC(=O)N5CCC[C@H]5B(O)O)c4c3)cc2)CCN(CC(=O)O)CC1`, for which the “pIC50 (FACS)” value in test [1] was found to be 8.9. Also, the “pIC50 (mouseFAP)” value at Recombinant mouse FAP is on record as 8.5. Moreover, the “pIC50 (DPP4)” value at Recombinant human DPP4 is reported as less than 6. At recombinant human PREP, the “pIC50 (PREP)” value was 8.2.

For the compound `O=C(O)CN1CCN(CC(=O)O)CCN(CC(=O)N2CCN(CCNC(=O)c3ccc(-c4ccc5c(C(=O)NCC(=O)N6CCC[C@H]6C(=O)c6nc7ccccc7o6)ccnc5c4)cc3)CC2)CCN(CC(=O)O)CC1` [drawing 355], the “pIC50 (FACS)” value in test [1] was 8.4. Moreover, the “pIC50 (mouseFAP)” value on Recombinant mouse FAP came out at 8.8. Moreover, the “pIC50 (DPP4)” value at Recombinant human DPP4 is less than 6. Further, the “pIC50 (PREP)” value on recombinant human PREP is listed as 8.7.
